Assay results published in patent US11866450B2, “Modulators of Cystic Fibrosis Transmembrane Conductance regulator, pharmaceutical compositions, methods of treatment, and process for making the modulators” (priority 2018, dated 2024).
Where two headings read alike, the source gives them in different places.

What was measured:
[1] = snar bond, NMP
[2] = biological target: CFTR-mediated chloride transport (Homo sapiens, UniProt P13569); type: cell-based; conditions: enteroid cells incubated with test compound 18-24 hours, acute 10 μM forskolin and 300 nM Compound III; for Max. Activity: % of chloride transport with 3 μM Compound A, 3 μM Compound II and 300 nM acute Compound III triple combination control
CFTR-mediated chloride transport, sequence (P13569 whole entry, looked up): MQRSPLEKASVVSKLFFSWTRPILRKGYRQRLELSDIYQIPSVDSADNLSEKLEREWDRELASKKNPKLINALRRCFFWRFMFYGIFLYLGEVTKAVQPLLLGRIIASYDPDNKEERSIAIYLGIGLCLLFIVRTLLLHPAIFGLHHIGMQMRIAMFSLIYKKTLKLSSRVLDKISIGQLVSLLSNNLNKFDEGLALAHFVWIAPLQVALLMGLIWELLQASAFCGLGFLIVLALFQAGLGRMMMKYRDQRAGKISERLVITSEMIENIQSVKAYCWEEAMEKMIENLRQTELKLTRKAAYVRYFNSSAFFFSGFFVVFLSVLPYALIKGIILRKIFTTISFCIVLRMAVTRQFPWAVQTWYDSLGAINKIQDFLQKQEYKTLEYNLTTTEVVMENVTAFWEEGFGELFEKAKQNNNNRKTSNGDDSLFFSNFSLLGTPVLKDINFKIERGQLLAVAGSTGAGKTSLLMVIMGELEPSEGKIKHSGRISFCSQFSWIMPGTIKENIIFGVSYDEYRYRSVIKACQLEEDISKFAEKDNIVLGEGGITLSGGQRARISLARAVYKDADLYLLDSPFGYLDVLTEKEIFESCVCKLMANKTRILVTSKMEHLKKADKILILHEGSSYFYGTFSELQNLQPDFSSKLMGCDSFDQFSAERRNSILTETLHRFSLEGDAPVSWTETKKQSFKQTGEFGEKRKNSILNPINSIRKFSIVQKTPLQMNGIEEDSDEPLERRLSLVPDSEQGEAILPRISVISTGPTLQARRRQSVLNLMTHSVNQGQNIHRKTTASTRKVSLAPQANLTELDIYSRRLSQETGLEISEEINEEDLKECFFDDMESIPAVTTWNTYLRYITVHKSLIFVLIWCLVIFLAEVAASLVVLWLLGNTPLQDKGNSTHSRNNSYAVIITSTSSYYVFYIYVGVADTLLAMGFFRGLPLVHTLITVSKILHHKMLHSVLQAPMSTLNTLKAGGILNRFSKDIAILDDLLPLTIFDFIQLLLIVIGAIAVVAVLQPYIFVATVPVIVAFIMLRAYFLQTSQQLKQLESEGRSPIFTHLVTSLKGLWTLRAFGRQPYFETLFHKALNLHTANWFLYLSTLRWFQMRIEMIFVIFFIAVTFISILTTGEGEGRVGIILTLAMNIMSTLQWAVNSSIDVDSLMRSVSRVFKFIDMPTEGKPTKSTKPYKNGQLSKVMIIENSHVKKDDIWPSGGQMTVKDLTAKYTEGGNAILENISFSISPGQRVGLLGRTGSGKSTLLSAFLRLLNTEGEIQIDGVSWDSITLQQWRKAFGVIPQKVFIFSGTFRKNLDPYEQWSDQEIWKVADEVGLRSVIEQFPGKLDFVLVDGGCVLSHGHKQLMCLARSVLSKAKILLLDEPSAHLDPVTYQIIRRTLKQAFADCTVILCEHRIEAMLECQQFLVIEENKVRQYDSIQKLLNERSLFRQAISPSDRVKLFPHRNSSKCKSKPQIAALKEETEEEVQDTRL
Method in brief: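 Membrane-potential fluorescence AUC over 15 min quantified CFTR chloride transport after acute forskolin (10 μM), IBMX (100 μM) and Compound III (300 nM) in chloride-free buffer. Human enteroid cells were pretreated with compound for 18–24 h; % Activity is relative to 3 μM Compound A + 3 μM Compound II + 300 nM Compound III.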

[3] = snar bond

| Structure (SMILES) | EC50 [2] [nM] | Max. Activity [2] | also measured |
| --- | --- | --- | --- |
| CC1(C)CCC2CCCNc3cccc(n3)S(=O)(=O)NC(=O)c3ccc(-n4ccc(OCC5C6(CC6)C56CC6)n4)nc3N21 (stereo not drawn) |  |  | ring closure, isolated yield ([1]; from 2-chloro-N-[[6-[3-(5,5-dimethylpyrrolidin-2-yl)propylamino]-2-pyridyl]sulfonyl]-6-[3-(dispiro[2.0.2.1]heptan-7-ylmethoxy)pyrazol-1-yl]pyridine-3-carboxamide (dihydrochloride salt), 14-membered ring, K2CO3/CsF, 123.1 mM): 41% |
| CC1(C)C[C@@H]2CCCNc3cccc(n3)S(=O)(=O)NC(=O)c3ccc(Cl)nc3N1C2 |  |  | ring closure, isolated yield ([1]; from 2,6-dichloro-N-[[6-[3-[(3S)-5,5-dimethylpyrrolidin-3-yl]propylamino]-2-pyridyl]sulfonyl]pyridine-3-carboxamide (dihydrochloride salt), 15-membered ring, K2CO3/CsF/3A MS, 113.8 mM, 150.0 °C): 54% |
| CC1(C)C[C@@H]2CCCNc3cccc(n3)S(=O)(=O)NC(=O)c3ccc(N4CCC(OCCC5C6(CC6)C56CC6)C4=O)nc3N1C2 (stereo partly drawn) |  |  | ring closure, isolated yield ([1]; from 2-chloro-N-[[6-[3-[(3S)-5,5-dimethylpyrrolidin-3-yl]propylamino]-2-pyridyl]sulfonyl]-6-[3-(2-dispiro[2.0.2.1]heptan-7-ylethoxy)-2-oxo-pyrrolidin-1-yl]pyridine-3-carboxamide (dihydrochloride salt), 15-membered ring, K2CO3, 24.0 mM, 150.0 °C): 52% |
| CC(C)COc1cc(F)cc(-c2ccc3c(n2)N2C[C@@H](CCCn4ccc(n4)S(=O)(=O)NC3=O)CC2(C)C)c1 [Compound 226] | < 1000 | ++ (++ is 30-60%) | ring closure, yield after HPLC ([3]; from CC(C)COc1cc(F)cc(-c2ccc(C(=O)NS(=O)(=O)c3ccn(CCC[C@@H]4CN(C(=O)OC(C)(C)C)C(C)(C)C4)n3)c(Cl)n2)c1, 14-membered ring, K2CO3/CsF/3A MS, DMSO, 15.0 mM, 150.0 °C, 2 steps): 34% |
| CC(C)C(COc1ccn(-c2ccc3c(n2)N2C[C@@H](CCCNc4cccc(n4)S(=O)(=O)NC3=O)CC2(C)C)n1)C(C)C [Compound 227, (14S)-12,12-Dimethyl-8-{3-[3-methyl-2-(propan-2-yl)butoxy]-1H-pyrazol-1-yl}-2λ^6-thia-3,9,11,18,23-pentaazatetracyclo[17.3.1.111,14.05,10]tetracosa-1(23),5(10),6,8,19,21-hexaene-2,2,4-trione] | < 1000 | +++ (+++ is >60%) | ring closure, yield after HPLC ([3]; from CC(C)C(COc1ccn(-c2ccc(C(=O)NS(=O)(=O)c3cccc(NCCC[C@@H]4CNC(C)(C)C4)n3)c(Cl)n2)n1)C(C)C, 15-membered ring, K2CO3/CsF/4A MS, DMSO, 73.3 mM, 150.0 °C): 20% |
| CC1(C)C[C@@H]2CCCNc3cccc(n3)S(=O)(=O)NC(=O)c3ccc(-n4ccc(OCCC(C5CCC5)C5CCC5)n4)nc3N1C2 [Compound 231, (14S)-8-[3-(3,3-dicyclobutylpropoxy)-1H-pyrazol-1-yl]-12,12-dimethyl-2λ^6-thia-3,9,11,18,23-pentaazatetracyclo[17.3.1.111,14.05,10]tetracosa-1(22),5,7,9,19(23),20-hexaene-2,2,4-trione] | < 1000 | +++ (+++ is >60%) | ring closure, yield after HPLC ([3]; from CC1(C)C[C@H](CCCNc2cccc(S(=O)(=O)NC(=O)c3ccc(-n4ccc(OCCC(C5CCC5)C5CCC5)n4)nc3Cl)n2)CN1, 15-membered ring, K2CO3/CsF/3A MS, DMSO, 21.1 mM, 165.0 °C, 16.0 h): 32% |
| CC(C)C(COc1ccn(-c2ccc3c(n2)N2CC(CC2(C)C)OCCNc2cccc(n2)S(=O)(=O)NC3=O)n1)C(C)C (stereo not drawn) [Compound 238, 12,12-dimethyl-8-{3-[3-methyl-2-(propan-2-yl)butoxy]-1H-pyrazol-1-yl}-15-oxa-2λ^6-thia-3,9,11,18,23-pentaazatetracyclo[17.3.1.111,14.05,10]tetracosa-1(23),5(10),6,8,19,21-hexaene-2,2,4-trione] | < 1000 | +++ (+++ is >60%) | ring closure, yield after HPLC ([3]; from CC(C)C(COc1ccn(-c2ccc(C(=O)NS(=O)(=O)c3cccc(NCCOC4CN(C(=O)OC(C)(C)C)C(C)(C)C4)n3)c(Cl)n2)n1)C(C)C, 15-membered ring, K2CO3/CsF/3A MS, DMSO, 78.4 mM, 140.0 °C, 2 steps): 44% |
| [2H]C1(CCOc2ccn(-c3ccc4c(n3)N3C[C@@H](CCCNc5cccc(n5)S(=O)(=O)NC4=O)CC3(C)C)n2)C2(CC2)C12CC2 [Compound 253, (14S)-8-(3-{2-[(7-deuterio)dispiro[2.0.2.1]heptan-7-yl]ethoxy}-1H-pyrazol-1-yl)-12,12-dimethyl-2λ^6-thia-3,9,11,18,23-pentaazatetracyclo[17.3.1.111,14.05,10]tetracosa-1(22),5,7,9,19(23),20-hexaene-2,2,4-trione] | < 1000 | +++ (+++ is >60%) | ring closure, yield after HPLC ([3]; from [2H]C1(CCOc2ccn(-c3ccc(C(=O)NS(=O)(=O)c4cccc(NCCC[C@@H]5CN(C(=O)OC(C)(C)C)C(C)(C)C5)n4)c(Cl)n3)n2)C2(CC2)C12CC2, 15-membered ring, K2CO3/CsF/3A MS, DMSO, 20.4 mM, 150.0 °C, 2 steps): 43% |
| CC1(C)C[C@@H]2CCCNc3cccc(n3)S(=O)(=O)NC(=O)c3ccc(-n4ccc(O)n4)nc3N1C2 [Compound 256, (14S)-8-(3-hydroxy-1H-pyrazol-1-yl)-12,12-dimethyl-2λ^6-thia-3,9,11,18,23-pentaazatetracyclo[17.3.1.111,14.05,10]tetracosa-1(22),5,7,9,19(23),20-hexaene-2,2,4-trione] | > 3000 | ++ (++ is 30-60%) | ring closure, yield after HPLC ([3]; from CC(C)(C)OC(=O)N1C[C@@H](CCCNc2cccc(S(=O)(=O)NC(=O)c3ccc(-n4ccc(OCC5C(C)(C)C5(C)C)n4)nc3Cl)n2)CC1(C)C, 15-membered ring, TFA/DCM, then K2CO3/CsF/3A MS, DMSO, 23.1 mM, 150.0 °C, 2 steps): 17% |
| CC1(C)C[C@@H]2CCCNc3cccc(n3)S(=O)(=O)NC(=O)c3ccc(-n4cccc(OCCC5(C(F)(F)F)CC5)c4=O)nc3N1C2 [Compound 268, (14S)-12,12-Dimethyl-8-(2-oxo-3-{2-[1-(trifluoromethyl)cyclopropyl]ethoxy}-1,2-dihydropyridin-1-yl)-2λ^6-thia-3,9,11,18,23-pentaazatetracyclo[17.3.1.111,14.05,10]tetracosa-1(23),5(10),6,8,19,21-hexaene-2,2,4-trione] | > 3000 | ++ (++ is 30-60%) | ring closure, yield after HPLC ([3]; from CC(C)(C)OC(=O)N1C[C@@H](CCCNc2cccc(S(=O)(=O)NC(=O)c3ccc(-n4cccc(OCCC5(C(F)(F)F)CC5)c4=O)nc3Cl)n2)CC1(C)C, 15-membered ring, K2CO3/CsF/3A MS, DMSO, 12.0 mM, 150.0 °C, 2 steps): 49% |
| [2H]C([2H])(COc1ccn(-c2ccc3c(n2)N2C[C@@H](CCCNc4cccc(n4)S(=O)(=O)NC3=O)CC2(C)C)n1)CC1(C(F)(F)F)CC1 [Compound 270, (14S)-12,12-Dimethyl-8-(3-{3-[1-(trifluoromethyl)cyclopropyl]-2,2-dideuterio-propoxy}-1H-pyrazol-1-yl)-2λ^6-thia-3,9,11,18,23-pentaazatetracyclo[17.3.1.111,14.05,10]tetracosa-1(23),5(10),6,8,19,21-hexaene-2,2,4-trione] | < 1000 | +++ (+++ is >60%) | ring closure, yield after HPLC ([3]; from [2H]C([2H])(COc1ccn(-c2ccc(C(=O)NS(=O)(=O)c3cccc(NCCC[C@@H]4CN(C(=O)OC(C)(C)C)C(C)(C)C4)n3)c(Cl)n2)n1)CC1(C(F)(F)F)CC1, 15-membered ring, TFA/DCM, then K2CO3/CsF/3A MS, DMSO, 27.0 mM, 150.0 °C, 2 steps): 44% |
| CC1(C)CC2CCn3ccc(n3)S(=O)(=O)NC(=O)c3ccc(-n4ccc(OCCCC5(C(F)(F)F)CC5)n4)nc3N1C2 (stereo not drawn) [Compound 273, 19,19-Dimethyl-4-(3-{3-[1-(trifluoromethyl)cyclopropyl]propoxy}-1H-pyrazol-1-yl)-10λ^6-thia-1,3,9,14,21-pentaazatetracyclo[15.2.1.111,14.02,7]henicosa-2,4,6,11(21),12-pentaene-8,10,10-trione] | < 1000 | + (+ is <30%) | ring closure, yield after HPLC ([3]; from CC1(C)CC(CCn2ccc(S(=O)(=O)NC(=O)c3ccc(-n4ccc(OCCCC5(C(F)(F)F)CC5)n4)nc3Cl)n2)CN1, 13-membered ring, K2CO3/CsF/3A MS, DMSO, 25.5 mM, 150.0 °C): 11% |
| CC1(C)CC2CCCCn3ccc(n3)S(=O)(=O)NC(=O)c3ccc(-n4ccc(OCCCC5(C(F)(F)F)CC5)n4)nc3N1C2 (stereo not drawn) [Compound 275, 21,21-Dimethyl-4-(3-{3-[1-(trifluoromethyl)cyclopropyl]propoxy}-1H-pyrazol-1-yl)-10λ^6-thia-1,3,9,14,23-pentaazatetracyclo[17.2.1.111,14.02,7]tricosa-2,4,6,11(23),12-pentaene-8,10,10-trione] | 1000 to 3000 | ++ (++ is 30-60%) | ring closure, yield after HPLC ([3]; from CC1(C)CC(CCCCn2ccc(S(=O)(=O)NC(=O)c3ccc(-n4ccc(OCCCC5(C(F)(F)F)CC5)n4)nc3Cl)n2)CN1, 15-membered ring, K2CO3/CsF/3A MS, DMSO, 24.7 mM, 150.0 °C, 18.0 h): 47% |
| Cc1nn2cc1S(=O)(=O)NC(=O)c1ccc(-n3ccc(OCC(C)(C)C(F)(F)F)n3)nc1N1CC(CCC2)CC1(C)C (stereo not drawn) [Compound 281, 12,20,20-trimethyl-4-[3-(3,3,3-trifluoro-2,2-dimethylpropoxy)-1H-pyrazol-1-yl]-10λ^6-thia-1,3,9,13,14-pentaazatetracyclo[16.2.1.111,14.02,7]docosa-2,4,6,11(22),12-pentaene-8,10,10-trione] | 1000 to 3000 | + (+ is <30%) | ring closure, yield after HPLC ([3]; from Cc1nn(CCCC2CNC(C)(C)C2)cc1S(=O)(=O)NC(=O)c1ccc(-n2ccc(OCC(C)(C)C(F)(F)F)n2)nc1Cl, 14-membered ring, K2CO3/CsF/3A MS, DMSO, 25.9 mM, 150.0 °C): 17% |
| CC1(C)C[C@@H]2CCCNc3cccc(n3)S(=O)(=O)NC(=O)c3ccc(C4=CCCCO4)nc3N1C2 [Compound 303, (14S)-8-(3,4-dihydro-2H-pyran-6-yl)-12,12-dimethyl-2λ^6-thia-3,9,11,18,23-pentaazatetracyclo[17.3.1.111,14.05,10]tetracosa-1(22),5,7,9,19(23),20-hexaene-2,2,4-trione] | < 1000 | +++ (+++ is >60%) | ring closure, yield after HPLC ([3]; from CC1(C)C[C@H](CCCNc2cccc(S(=O)(=O)NC(=O)c3ccc(C4=CCCCO4)nc3Cl)n2)CN1, 15-membered ring, K2CO3, NMP, 25.7 mM, 180.0 °C): 3% |
